Test results: patent US20250051337A1 (priority 2021, published 2025)
Values after ≈ are worked out from the molar mass of the structure shown. Like-named read-outs stand apart in the source and are kept apart here. Marks after values point to notes of the source that are not given here.

Columns and labels:
[1] = target: STK4 (Homo sapiens (Human), UniProt Q13043); assay: PhosphoSens CSox-based Sensor Assay, STK4; type: biochemical; conditions: Km ATP, mean n = 2
Method: (§1) Materials were obtained and prepared according to the assay manufacturer's protocol (Assay Quant Technologies: Marlborough, MA, USA). The 50 μL reaction was initiated by addition of a master mix containing the compounds or vehicle, kinase, and CSox-peptide substrate to a well containing the remaining components. […] Final concentrations were: […] HEPES pH 7.5, 50 μM ATP, 1.0 mM DTT, 0.01% Brij-35, 0.5 mM EGTA, 10 mM MgCl2, 10 μM peptide substrate (AQT0135), and 5.0 nM STK3 (SignalChem #S24-10G) or STK4 (SignalChem #S25-10G) kinases. […] Background-corrected RFU were plotted against time using Prism 8 software. Velocity determinations were calculated for each reaction and plotted versus compound concentration to generate inhibitor curves.
(§2) The PhosphoSens® CSox-based Sensor real-time kinetic assay uses a peptide substrate containing an unnatural amino acid and physiological Mg^2+ levels to quantify substrate phosphorylation using fluorescence.

[2] = target: kinase domain of STK4 (Homo sapiens (Human), UniProt Q13043); assay: Isothermal titration calorimetry (ITC), STK4; type: binding; conditions: 25° C
Method: (§3) All ITC experiments were performed using NanoITC (TA Instruments: New Castle, DE, USA) at 25° C. in a buffer containing 20 mM Tris pH 7.5, 150 mM NaCl, and 0.5 mM TCEP. […] For this protocol the chamber was pre-equilibrated with the test compound, and the kinase domain of STK3 or STK4 was titrated in while continuously measuring the rate of exothermic heat evolution. The heat of binding was integrated, corrected, and fitted to an independent single-binding site model based on the manufacturer's protocol, from which thermodynamic parameters (ΔH and TΔS), equilibrium association and dissociation constants (Ka and KD), and stoichiometry (n) were calculated.
(§4) Isothermal titration calorimetry (ITC) was used to determine the thermodynamic properties of the compounds.

[3] = Kinetic solubility; type: physicochemical
Text: Data is represented as an average of a single experiment preformed in duplicate. Atenolol was used as an internal standard.

[4] = target: STK3 (Homo sapiens (Human), UniProt Q13188); assay: PhosphoSens CSox-based Sensor Assay, STK3; type: biochemical; conditions: Km ATP, mean n = 2
Method: as §1, §2

[5] = system: Thr35-phosphorylated MOB1 in liver; assay: Western blot analysis of p-MOB1 in mouse liver; type: in vivo; conditions: mice; for levels of Thr35-phosphorylated MOB1 in liver vs vehicle / Relative decrease in liver p-MOB1 level: 20 mg/kg intraperitoneal; for levels of Thr35-phosphorylated MOB1 in liver vs vehicle: 1 h, p<0.002; for Relative decrease in liver p-MOB1 level: 1 h post-dose
Method: […] Approximately 50 mg of liver tissue was placed in 1 mL Radioimmunoprecipitation assay (RIPA) buffer (50 mM Tris-HCl pH 8.0, 150 mM NaCl, 1.0% IGEPAL® CA-630, 0.5% sodium deoxycholate, and 0.1% SDS) containing phosphatase and protease inhibitor cocktails, homogenized with a PowerGen 125 homogenizer (Fisher Scientific), and then sonicated for 10 s. Homogenized tissues were centrifuged at 14,000×g at 4° C. for 20 min and the supernatants were recovered.
Protein concentrations in the supernatants were determined using a BCA assay (Pierce/Thermo Scientific). Proteins were separated on Novex™ WedgeWell™ 4-20% Tris-Glycine Gels (Invitrogen: Carlsbad, CA, USA) and transferred to polyvinylidene difluoride (Trans-Blot® Turbo™ Transfer Pack) membranes. Membranes were blocked in Tris-buffered saline Tween® 20 (50 mM Tris-HCl pH 7.6, 150 mM NaCl, 0.05% Tween 20: TBST) containing 3% Bovine Serum Albumin (BSA) for 1 h at room temperature and incubated overnight at 4° C. with primary antibodies as follows: 1:1000 dilution of anti-MOB1 (rabbit monoclonal antibody [mAb]#13730), 1:1000 anti-phospho-MOB1 Thr35 (rabbit mAb #8699), or 1:5000 anti-GAPDH (rabbit mAb #2118: all from Cell Signaling Technology: Danvers, MA, USA). Blots were rinsed three times with TBST and then incubated in 5% nonfat milk containing horseradish peroxidase (HRP)-conjugated mouse anti-rabbit IgG secondary Ab (Cell Signaling Technology) for 1 h at RT. Blots were washed three times with TBST, developed using Pierce® ECL Western Blotting reagent, and imaged and analyzed using with ImageJ software. Quantitative data are expressed as the level of phosphorylated MOB1 normalized to total MOB1.
Adult female C57BL/6 mice (n=3/group) were intraperitoneally injected with vehicle or test compound (20 mg/kg), and blood samples and livers were collected at 30 min and 1 h post-injection, respectively. Plasma concentrations of all 13 compounds were >1.4 μM at 30 min after injection, and 10 compounds had liver concentrations >1.0 μM at 1 h after injection, as measured by LC-MS/MS, with particularly high plasma concentrations obtained with compounds 11 (15.9 μM), 16 (11.6 μM) and 105 (8.7 μM) (Table 5). To evaluate target engagement in vivo, the total and phosphorylated MOB1 levels in livers collected at 1 h post-injection was examined.

[6] = target: kinase domain of STK3 (Homo sapiens (Human), UniProt Q13188); assay: Isothermal titration calorimetry (ITC), STK3; type: binding; conditions: 25° C
Method: as §3, §4

[7] = FaSSGF, fassgf or other biorelevant, kinetic from dmso stock, FaSSGF, read-out: Solubility, FASSGF
[8] = FaSSIF, kinetic from dmso stock, FaSSIF, read-out: Solubility, FaSSIF
[9] = PBS pH 7.4, pH 7.4, aqueous buffer, kinetic from dmso stock, PBS pH 7.4, read-out: Solubility, Buffer (pH = 7.4)

Sequence of STK3 (Q13188 whole entry): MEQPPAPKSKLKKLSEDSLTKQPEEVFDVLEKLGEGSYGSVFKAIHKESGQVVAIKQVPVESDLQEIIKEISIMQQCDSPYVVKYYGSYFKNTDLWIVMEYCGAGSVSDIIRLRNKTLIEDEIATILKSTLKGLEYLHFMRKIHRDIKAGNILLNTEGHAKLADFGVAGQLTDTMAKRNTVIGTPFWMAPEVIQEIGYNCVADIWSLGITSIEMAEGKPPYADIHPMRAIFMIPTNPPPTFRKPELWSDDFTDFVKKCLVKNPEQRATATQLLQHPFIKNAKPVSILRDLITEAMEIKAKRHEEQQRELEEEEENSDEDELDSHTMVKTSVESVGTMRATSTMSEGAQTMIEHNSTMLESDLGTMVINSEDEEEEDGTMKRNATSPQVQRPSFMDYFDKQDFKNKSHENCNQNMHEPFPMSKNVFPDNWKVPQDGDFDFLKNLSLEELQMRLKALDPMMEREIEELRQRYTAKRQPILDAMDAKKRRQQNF
Sequence of STK4 (Q13043 whole entry): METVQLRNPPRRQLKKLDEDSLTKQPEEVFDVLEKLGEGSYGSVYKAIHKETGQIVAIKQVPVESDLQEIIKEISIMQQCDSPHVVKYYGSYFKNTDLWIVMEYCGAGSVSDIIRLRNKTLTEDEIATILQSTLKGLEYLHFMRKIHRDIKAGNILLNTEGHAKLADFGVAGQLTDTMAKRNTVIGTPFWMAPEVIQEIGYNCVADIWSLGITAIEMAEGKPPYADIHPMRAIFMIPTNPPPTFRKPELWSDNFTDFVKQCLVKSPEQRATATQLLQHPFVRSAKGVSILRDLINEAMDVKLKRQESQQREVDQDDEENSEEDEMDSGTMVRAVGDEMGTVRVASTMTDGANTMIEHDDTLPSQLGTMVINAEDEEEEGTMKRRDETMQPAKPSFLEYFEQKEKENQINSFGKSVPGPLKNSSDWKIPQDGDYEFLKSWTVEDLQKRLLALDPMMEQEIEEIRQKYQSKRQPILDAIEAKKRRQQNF
Sequence of kinase domain of STK4 (Q13043 30-281): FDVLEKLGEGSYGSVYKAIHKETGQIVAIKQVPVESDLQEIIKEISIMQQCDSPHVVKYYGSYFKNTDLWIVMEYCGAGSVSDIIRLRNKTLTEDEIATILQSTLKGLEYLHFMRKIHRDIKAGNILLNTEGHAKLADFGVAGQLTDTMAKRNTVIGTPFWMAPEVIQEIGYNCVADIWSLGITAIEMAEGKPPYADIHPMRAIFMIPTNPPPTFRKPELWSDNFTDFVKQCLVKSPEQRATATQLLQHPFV
Sequence of kinase domain of STK3 (Q13188 27-278): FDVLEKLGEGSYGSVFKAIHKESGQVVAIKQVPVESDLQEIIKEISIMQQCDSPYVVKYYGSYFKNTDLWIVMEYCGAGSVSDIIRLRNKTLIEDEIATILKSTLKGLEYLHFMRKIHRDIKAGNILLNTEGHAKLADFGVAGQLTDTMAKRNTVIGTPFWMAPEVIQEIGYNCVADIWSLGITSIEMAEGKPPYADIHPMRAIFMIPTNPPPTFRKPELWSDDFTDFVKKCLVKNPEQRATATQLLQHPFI

| SMILES | Ki [1] | ITC-KD, STK4 [2] | solubility [3, 7] | solubility [3, 8] | solubility [3, 9] | Ki [4] | inhibition of MOB1 phosphorylation in liver ([5]; 10 mg/kg intraperitoneal, 1, 2, 3 h) | levels of Thr35-phosphorylated MOB1 in liver vs vehicle [5] | Relative decrease in liver p-MOB1 level [5] | solubility ([3]; PBS pH 7.4, read-out: Solubility, Buffer (pH = 7.4)) | ITC-KD, STK3 [6] |
| --- | --- | --- | --- | --- | --- | --- | --- | --- | --- | --- | --- |
| Clc1cccc(-c2c[nH]c3ncnc(N4CCOCC4)c23)c1 [Compound 6, 4-(5-(3-Chlorophenyl)-7H-pyrrolo[2,3-d]pyrimidin-4-yl)morpholine] | 52 nM | low nanomolar affinities | 353 µM (≈ 111 µg/mL) | 35.7 µM (≈ 11.2 µg/mL) | 9.2 µM (≈ 2.9 µg/mL) |  |  |  |  |  |  |
| NC(=O)c1cccc(-c2c[nH]c3ncnc(N4CCOCC4)c23)c1 [Compound 11, 3-(4-Morpholino-7H-pyrrolo[2,3-d]pyrimidin-5-yl)benzamide] |  |  | 430 µM (≈ 139 µg/mL) | 136 µM (≈ 43.8 µg/mL) | 145 µM (≈ 46.9 µg/mL) | 145 nM | maximum inhibition of MOB1 phosphorylation observed at 1 h | significant reduction |  |  |  |
| OC1CCN(c2ncnc3[nH]cc(-c4cccc(Cl)c4)c23)CC1 [Compound 16, 1-(5-(3-Chlorophenyl)-7H-pyrrolo[2,3-d]pyrimidin-4-yl)piperidin-4-ol] |  |  | 352 µM (≈ 116 µg/mL) | 294 µM (≈ 96.5 µg/mL) | 189 µM (≈ 62.1 µg/mL) |  |  | significant reduction | 78%** | 188.5 µM (≈ 62 µg/mL) |  |
| Clc1cccc(-c2c[nH]c3nccc(N4CCOCC4)c23)c1 [Compound 23, 4-(3-(3-chlorophenyl)-1H-pyrrolo[2,3-b]pyridin-4-yl)morpholine] | 33 nM | low nanomolar affinities | 372 µM (≈ 117 µg/mL) | 7 µM (≈ 2.2 µg/mL) | < 0.6 µM | 209 nM |  |  | 33% |  | low nanomolar affinities |
| CC(=O)NC1CCN(c2ncnc3[nH]cc(-c4cccc(Cl)c4)c23)CC1 [Compound 105, N-(1-(5-(3-chlorophenyl)-7H-pyrrolo[2,3-d]pyrimidin-4-yl)piperidin-4-yl)acetamide] |  |  |  |  |  |  |  | significant reduction | 99%** |  |  |
